Earlier results, collected in patent US7803960B2, “Phenyloxyaniline derivatives” (Bayer Schering Pharma Aktiengesellschaft, priority 2006, dated 2010).

Experiments:
[1] = test system: Peripheral benzodiazepine receptor (PBR); conditions: compared with [^11C]PK11195 (1)
[2] = compared with [^11C]PK11195 (1)
PBRs = target: T1, PBRs (Homo sapiens, UniProt P30536); conditions: C-11 isotope labeled version, in vivo imaging
T1 construct: host or cells: brain, in vivo
T1 sequence (P30536 whole entry): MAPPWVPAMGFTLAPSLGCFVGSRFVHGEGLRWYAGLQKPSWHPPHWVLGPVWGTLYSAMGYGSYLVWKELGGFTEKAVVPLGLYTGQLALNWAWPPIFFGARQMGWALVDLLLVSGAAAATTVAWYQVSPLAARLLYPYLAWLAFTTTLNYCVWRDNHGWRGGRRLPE

binding affinity to PBR [1] | accumulation in the brain [2] | Compound | signal in the brain (PBRs)
higher | higher | COc1ccc(O[11CH3])c(CN(C(C)=O)c2cc(F)ccc2Oc2ccccc2)c1 [Compound 2] | –
higher | higher | COc1ccc(OCC[18F])c(CN(C(C)=O)c2cc(F)ccc2Oc2ccccc2)c1 [Compound 3, N-(5-Fluoro-2-phenoxyphenyl)-N-(2-(2-[^18F]fluoroethoxy)-5-methoxybenzyl)acetamide] | –
– | – | CC[C@@H](C)N(C)C(=O)c1cc2ccccc2c(-c2ccccc2Cl)n1 [PK11195] | not high enough for stable quantitative analysis
